Patent US7700592B2, “α2C adrenoreceptor agonists” (Schering Corporation, priority 2005, dated 2010)

biological target: T1, α2C receptor (Homo sapiens, UniProt P18825); experiment: GTPγS assay, efficacy agonist activity (Emax) for α2C; type: biochemical; conditions: active agonist = efficacy at α2C ≧30% Emax; functionally selective = additionally efficacy at α2A ≦30% Emax (GTPγS assay)
T1 sequence (P18825 1-462): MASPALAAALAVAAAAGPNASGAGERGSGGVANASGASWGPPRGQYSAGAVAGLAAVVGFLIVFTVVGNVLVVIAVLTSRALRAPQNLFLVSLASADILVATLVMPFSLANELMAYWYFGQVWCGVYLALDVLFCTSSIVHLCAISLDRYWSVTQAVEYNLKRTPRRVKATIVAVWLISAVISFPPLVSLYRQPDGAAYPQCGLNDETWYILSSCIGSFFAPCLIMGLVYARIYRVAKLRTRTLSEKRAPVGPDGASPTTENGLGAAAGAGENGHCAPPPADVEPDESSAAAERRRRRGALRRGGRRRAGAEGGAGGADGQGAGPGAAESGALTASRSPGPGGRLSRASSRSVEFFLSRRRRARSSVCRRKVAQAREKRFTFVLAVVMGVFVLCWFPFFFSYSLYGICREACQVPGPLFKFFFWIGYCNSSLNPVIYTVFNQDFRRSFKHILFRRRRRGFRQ
Source text: For the purposes of this present invention, a compound is defined to be an active agonist of the α2C receptor subtype if the compound's efficacy at the α2C receptor is ≧30% Emax (GTPγS assay). A compound is a functionally selective agonist of the α2C receptor subtype over the α2A receptor subtype if the compound's efficacy at the α2C receptor is ≧30% Emax (GTPγS assay) and its efficacy at the α2A receptor is ≦30% Emax (GTPγS assay).
Efficacy agonist activity values (Emax, GTPγS assay) for α2C were determined by following the general procedure detailed by Umland et al (“Receptor reserve analysis of the human α2c-adrenoceptor using [^35S]GTPγS and cAMP functional assays” European Journal of Pharmacology 2001, 411, 211-221). For the purposes of the present invention, a compound is defined to be an active agonist of the α2C receptor subtype if the compound's efficacy at the α2C receptor is ≧30% Emax (GTPγS assay). A compound is a functionally selective agonist of the α2C receptor subtype over the α2A receptor subtype if the compound's efficacy at the α2C receptor is […] Emax (GTPγS assay) and its efficacy at the α2A receptor is ≦30% Emax (GTPγS assay).

Structure (SMILES) | Efficacy agonist activity (Emax, GTPγS assay) for α2C: evaluated as active or functionally selective agonist
CCN(C(=O)OCc1ccc(S(C)(=O)=O)cc1)c1ccc2c(c1)N(Cc1c[nH]cn1)CCO2 [Compound 65] | active or functionally selective agonists of the α2C receptor subtype
COC(=O)Cc1ccc2c(c1)N(Cc1c[nH]cn1)CCO2 [Compound 114] | active or functionally selective agonists of the α2C receptor subtype
c1cnc2c(c1)OCCN2Cc1c[nH]cn1 [Compound 117] | active or functionally selective agonists of the α2C receptor subtype
Fc1cc(Br)cc2c1OCCN2Cc1c[nH]cn1 [Compound 124] | active or functionally selective agonists of the α2C receptor subtype
N#Cc1cc(F)c2c(c1)N(Cc1c[nH]cn1)CCO2 [Compound 125] | active or functionally selective agonists of the α2C receptor subtype
Cc1cc([N+](=O)[O-])cc2c1OCCN2Cc1c[nH]cn1 [Compound 129] | active or functionally selective agonists of the α2C receptor subtype
COC(=O)Nc1cc(C)c2c(c1)N(Cc1c[nH]cn1)CCO2 [Compound 130] | active or functionally selective agonists of the α2C receptor subtype
O=CNc1cc(F)c2c(c1)N(Cc1c[nH]cn1)CCO2 [Compound 132] | active or functionally selective agonists of the α2C receptor subtype
CNC(=O)N(C)c1cc(F)c2c(c1)N(Cc1c[nH]cn1)CCO2 [Compound 134] | active or functionally selective agonists of the α2C receptor subtype
COC(=O)N(C)c1cc(F)c2c(c1)N(Cc1c[nH]cn1)CCO2 [Compound 135] | active or functionally selective agonists of the α2C receptor subtype
COC(=O)Nc1ccc2c(n1)N(Cc1c[nH]cn1)CCO2 [Compound 137] | active or functionally selective agonists of the α2C receptor subtype
COC(=O)Nc1ccc2c(c1)N(CCc1c[nH]cn1)CCO2 [Compound 139] | active or functionally selective agonists of the α2C receptor subtype
CN(C)S(=O)(=O)Nc1ccc2c(c1)N(Cc1c[nH]cn1)CCS2 [Compound 142] | active or functionally selective agonists of the α2C receptor subtype
CNC(=O)N(C)c1ccc2c(c1)N(Cc1c[nH]cn1)CCS2 [Compound 144] | active or functionally selective agonists of the α2C receptor subtype
FC(F)(F)c1ccc2c(c1)N(Cc1c[nH]cn1)CCS2 [Compound 145] | active or functionally selective agonists of the α2C receptor subtype
COc1ccc(-c2ccc3c(c2)N(Cc2c[nH]cn2)CCO3)cn1 [Compound 148] | active or functionally selective agonists of the α2C receptor subtype
CCN(C(=O)OC)c1ccc2c(c1)N(Cc1c[nH]cn1)CCO2 [Compound 151] | active or functionally selective agonists of the α2C receptor subtype
N=C(N)c1cc(F)c2c(c1)N(Cc1c[nH]cn1)CCO2 [Compound 152] | active or functionally selective agonists of the α2C receptor subtype
CCN(C(C)=O)c1ccc2c(c1)N(Cc1c[nH]cn1)CCO2 [Compound 158] | active or functionally selective agonists of the α2C receptor subtype
CCOC(=O)N(CC)c1ccc2c(c1)N(Cc1c[nH]cn1)CCO2 [Compound 159] | active or functionally selective agonists of the α2C receptor subtype
CCN(C(=O)OCCOC)c1ccc2c(c1)N(Cc1c[nH]cn1)CCO2 [Compound 160] | active or functionally selective agonists of the α2C receptor subtype

Structure (SMILES) | Efficacy agonist activity (Emax, GTPγS assay) for α2C: evaluated as active or functionally selective agonist
CC#CCOC(=O)N(CC)c1ccc2c(c1)N(Cc1c[nH]cn1)CCO2 [Compound 162] | active or functionally selective agonists of the α2C receptor subtype
CCN(C(=O)COC)c1ccc2c(c1)N(Cc1c[nH]cn1)CCO2 [Compound 163] | active or functionally selective agonists of the α2C receptor subtype
CCN(C(=O)CCOC)c1ccc2c(c1)N(Cc1c[nH]cn1)CCO2 [Compound 164] | active or functionally selective agonists of the α2C receptor subtype
CCN(C(=O)COCCOC)c1ccc2c(c1)N(Cc1c[nH]cn1)CCO2 [Compound 165] | active or functionally selective agonists of the α2C receptor subtype
CCN(C(=O)CCCc1ccccc1)c1ccc2c(c1)N(Cc1c[nH]cn1)CCO2 [Compound 167] | active or functionally selective agonists of the α2C receptor subtype
CNC(=O)N(C)c1ccc2c(c1)N(C(C#N)c1c[nH]cn1)CCO2 (centres unmarked) [Compound 168] | active or functionally selective agonists of the α2C receptor subtype
CCN(C(=O)NC)c1ccc2c(c1)N(C(C#N)c1c[nH]cn1)CCO2 (centres unmarked) [Compound 169] | active or functionally selective agonists of the α2C receptor subtype
COC(=O)Nc1ccc2c(c1)N(C(C#N)c1c[nH]cn1)CCO2 (centres unmarked) [Compound 171] | active or functionally selective agonists of the α2C receptor subtype
CCN(C(=O)OC)c1cc(F)c2c(c1)N(Cc1c[nH]cn1)CCO2 [Compound 178] | active or functionally selective agonists of the α2C receptor subtype
COC(=O)Nc1cc(F)c2c(c1)N(C(C#N)c1c[nH]cn1)CCO2 (centres unmarked) [Compound 181] | active or functionally selective agonists of the α2C receptor subtype
CNC(=O)N(C)c1ccc2c(c1)N(Cc1c[nH]cn1)CCCO2 [Compound 223] | active or functionally selective agonists of the α2C receptor subtype
COCCOC(=O)N(C)c1ccc2c(n1)N(Cc1c[nH]cn1)CCO2 [Compound 231] | active or functionally selective agonists of the α2C receptor subtype
CNC(=O)N(C)c1cc(Cl)c2c(c1)N(Cc1c[nH]cn1)CCO2 [Compound 232] | active or functionally selective agonists of the α2C receptor subtype
CONC(=O)N(C)c1cc(Cl)c2c(c1)N(Cc1c[nH]cn1)CCO2 [Compound 235] | active or functionally selective agonists of the α2C receptor subtype
CCN(C(=O)NC)c1cc(Cl)c2c(c1)N(Cc1c[nH]cn1)CCO2 [Compound 236] | active or functionally selective agonists of the α2C receptor subtype
CCCN(C(=O)NC)c1ccc2c(c1)N(Cc1c[nH]cn1)CCO2 [Compound 238] | active or functionally selective agonists of the α2C receptor subtype
CNC(=O)N(C)c1cc(C)c2c(c1)N(Cc1c[nH]cn1)CCO2 [Compound 239] | active or functionally selective agonists of the α2C receptor subtype
COC(=O)N(C)c1cc(C)c2c(c1)N(Cc1c[nH]cn1)CCO2 [Compound 240] | active or functionally selective agonists of the α2C receptor subtype
COCC(=O)N(C)c1ccc2c(c1)N(Cc1c[nH]cn1)CCO2 [Compound 242] | active or functionally selective agonists of the α2C receptor subtype
CONC(=O)N(C)c1ccc2c(c1)N(Cc1c[nH]cn1)CCO2 [Compound 243] | active or functionally selective agonists of the α2C receptor subtype
